Where a name gives a salt, the structure may show the parent alone.

A word on the IC50: it is the midpoint of a concentration-inhibition curve.

In this assay the target is T1, CCR2 (Homo sapiens, UniProt P41597).
T1 construct: host or cells: THP-1 human monocytic cells
T1 sequence (P41597 1-360 isoform P41597-2): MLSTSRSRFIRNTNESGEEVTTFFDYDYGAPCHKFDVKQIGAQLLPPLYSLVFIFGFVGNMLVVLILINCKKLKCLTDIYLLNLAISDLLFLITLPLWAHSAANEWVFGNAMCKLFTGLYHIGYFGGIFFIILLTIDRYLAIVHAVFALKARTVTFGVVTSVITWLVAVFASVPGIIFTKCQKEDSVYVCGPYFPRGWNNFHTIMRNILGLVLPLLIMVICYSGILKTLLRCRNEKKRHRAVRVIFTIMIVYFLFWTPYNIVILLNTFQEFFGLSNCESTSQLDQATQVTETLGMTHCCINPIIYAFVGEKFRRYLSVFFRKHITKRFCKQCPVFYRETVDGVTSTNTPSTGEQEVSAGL
The experiment in a line: MCP-1 Receptor Binding Assay in THP-1 Cells. The note with it: 0.5 nM 125I labeled MCP-1, 2 hours at 30° C., less polar isomer tested where stated, read-out: Inhibition of MCP-1 Binding IC50, CCR2 Binding. Here is the method: MCP-1 Receptor Binding Assay in THP-1 Cells
Human monocytic cell line THP-1 cells were obtained from American Type Culture Collection (Manassas, Va., USA). The THP-1 cells were grown in RPMI-1640 (RPMI: Roswell Park Memorial Institute Medium-cell culture growth media) supplemented with 10% fetal bovine serum in a humidified 5% CO2 atmosphere at 37° C. The cell density was maintained […].
THP-1 (cells were incubated with 0.5 nM ^125I labeled MCP-1 (Perkin-Elmer Life Sciences, Inc. Boston, Mass.) in the presence of varying concentrations of either unlabeled MCP-1 (R & D Systems, Minneapolis, Minn.) or test compound for 2 hours at 30° C. in a 96 well plate. Cells were then harvested onto a filter plate, dried, and 20 μL of Microscint 20 was added to each well. Plates were counted in a TopCount NXT, Microplate Scintillation & Luminescence Counter (Perkin-Elmer Life Sciences, Inc. Boston, Mass.). Blank values (buffer only) were subtracted from all values and drug treated values were compared to vehicle treated values. 1 μM cold MCP-1 was used for nonspecific binding.
Where an IC50 value was not obtained for a particular compound, the percent inhibition is provided at a test concentration of 25 μM.
As to `CCOC(=O)C1CCC(N2CC(NC(=O)CNc3nn(C)c4ccc(OC(F)(F)F)cc34)C2)CC1` (single isomer, unassigned) [Example 58], the IC50 stood at 45 nM.

In the case of `CCC(O)[C@H]1CC[C@@H](N2CC(NC(=O)CNc3n[nH]c4ncc(C(F)(F)F)cc34)C2)CC1` (single isomer, unassigned) [Example 105], the IC50 was 330 nM. Regarding `CCC(O)[C@H]1CC[C@H](N2CC(NC(=O)CNc3n[nH]c4ncc(C(F)(F)F)cc34)C2)CC1` (single isomer, unassigned) [Example 106], the IC50 was 330 nM. With `O=C(CNc1noc2ccc(C(F)(F)F)cc12)NC1CN(C2CCC(c3ccc4c(c3)OCO4)CC2)C1` (stereo not shown) [Example 1, N-[1-(4-Benzo[1,3]dioxol-5-yl-cyclohexyl)-azetidin-3-yl]-2-(5-trifluoromethyl-benzo[d]isoxazol-3-ylamino)-acetamide], the IC50 turned out to be 36 nM. In the case of `COc1ccc(C2(O)CCC(N3CC(NC(=O)CNc4noc5ccc(C(F)(F)F)cc45)C3)CC2)cn1` (stereo not shown) [Example 2, N-{1-[4-Hydroxy-4-(6-methoxy-pyridin-3-yl)-cyclohexyl]-azetidin-3-yl}-2-(5-trifluoromethyl-benzo[d]isoxazol-3-ylamino)-acetamide], the IC50 was found to be 23 nM.

On to `O=C(CNc1noc2ccc(C(F)(F)F)cc12)NC1CN(C2CCC(O)(c3cncs3)CC2)C1` (stereo not shown) [Example 3, N-[1-(4-Hydroxy-4-thiazol-5-yl-cyclohexyl)-azetidin-3-yl]-2-(5-trifluoromethyl-benzo[d]isoxazol-3-ylamino)-acetamide], for which the IC50 came to 31 nM. Regarding `O=C(CNc1noc2ccc(C(F)(F)F)cc12)NC1CN(C2CCC(O)(c3nccs3)CC2)C1` (stereo not shown) [Example 4, N-[1-(4-Hydroxy-4-thiazol-2-yl-cyclohexyl)-azetidin-3-yl]-2-(5-trifluoromethyl-benzo[d]isoxazol-3-ylamino)-acetamide], the IC50 was 31 nM. Take `O=C(CNc1noc2ccc(C(F)(F)F)cc12)NC1CN(C2CCC(C3CCCCC3)CC2)C1` (stereo not shown) [Example 5, N-(1-Bicyclohexyl-4-yl-azetidin-3-yl)-2-(5-trifluoromethyl-benzo[d]isoxazol-3-ylamino)-acetamide]: the IC50 worked out at 330 nM. In the case of `CCOC(=O)C1CCC(N2CC(NC(=O)CNc3noc4ccc(C(F)(F)F)cc34)C2)CC1` (stereo not shown) [Example 6, 4-{3-[2-(5-Trifluoromethyl-benzo[d]isoxazol-3-ylamino)-acetylamino]-azetidin-1-yl}-cyclohexanecarboxylic acid ethyl ester] it was 29 nM.

For the molecule `CC(C)C1CCC(N2CC(NC(=O)CNc3noc4ccc(C(F)(F)F)cc34)C2)CC1` (stereo not shown) [Example 7, N-[1-(4-Isopropyl-cyclohexyl)-azetidin-3-yl]-2-(5-trifluoromethyl-benzo[d]isoxazol-3-ylamino)-acetamide], the IC50 was 170 nM. On to `CC(C)(C)[Si](C)(C)OC1CCC(N2CC(NC(=O)CNc3noc4ccc(C(F)(F)F)cc34)C2)CC1` (stereo not shown) [Example 8, N-{1-[4-(tert-Butyl-dimethyl-silanyloxy)-cyclohexyl]-azetidin-3-yl}-2-(5-trifluoromethyl-benzo[d]isoxazol-3-ylamino)-acetamide], for which the IC50 is 7700 nM. `O=C(CNc1noc2ccc(C(F)(F)F)cc12)NC1CN(C2CCC(O)CC2)C1` (stereo not shown) [Example 9, N-[1-(4-Hydroxy-cyclohexyl)-azetidin-3-yl]-2-(5-trifluoromethyl-benzo[d]isoxazol-3-ylamino)-acetamide]: the IC50 turned out to be 770 nM. Turning to `CC(C)(C)OC(=O)NC1CCC(N2CC(NC(=O)CNc3noc4ccc(C(F)(F)F)cc34)C2)CC1` (stereo not shown) [Example 10, (4-{3-[2-(5-Trifluoromethyl-benzo[d]isoxazol-3-ylamino)-acetylamino]-azetidin-1-yl}-cyclohexyl)-carbamic acid tert-butyl ester], the IC50 came out at 750 nM. As to `NC1CCC(N2CC(NC(=O)CNc3noc4ccc(C(F)(F)F)cc34)C2)CC1` (stereo not shown) [Example 11, N-[1-(4-Amino-cyclohexyl)-azetidin-3-yl]-2-(5-trifluoromethyl-benzo[d]isoxazol-3-ylamino)-acetamide TFA salt], the IC50 amounted to 2900 nM. With `CCC1CCC(N2CC(NC(=O)CNc3noc4ccc(C(F)(F)F)cc34)C2)CC1` (stereo not shown) [Example 12, N-[1-(4-Ethyl-cyclohexyl)-azetidin-3-yl]-2-(5-trifluoromethyl-benzo[d]isoxazol-3-ylamino)-acetamide], the IC50 was determined as 390 nM.

In the case of `N#CC1CCC(N2CC(NC(=O)CNc3noc4ccc(C(F)(F)F)cc34)C2)CC1` (stereo not shown) [Example 13, N-[1-(4-Cyano-cyclohexyl)-azetidin-3-yl]-2-(5-trifluoromethyl-benzo[d]isoxazol-3-ylamino)-acetamide], the IC50 stood at 450 nM. `CCCC1CCC(N2CC(NC(=O)CNc3noc4ccc(C(F)(F)F)cc34)C2)CC1` (stereo not shown) [Example 14, N-[1-(4-Propyl-cyclohexyl)-azetidin-3-yl]-2-(5-trifluoromethyl-benzo[d]isoxazol-3-ylamino)-acetamide]: the IC50 amounted to 360 nM. `O=C(CNc1noc2ccc(OC(F)(F)F)cc12)NC1CN(C2CCC(c3ccc4c(c3)OCO4)CC2)C1` (stereo not shown) [Example 15, N-[1-(4-Benzo[1,3]dioxol-5-yl-cyclohexyl)-azetidin-3-yl]-2-(5-trifluoromethoxy-benzo[d]isoxazol-3-ylamino)-acetamide]: the IC50 worked out at 10 nM.

As to `CCOC(=O)C1CCC(N2CC(NC(=O)CNc3noc4ccc(OC(F)(F)F)cc34)C2)CC1` (stereo not shown) [Example 16, 4-{3-[2-(5-Trifluoromethoxy-benzo[d]isoxazol-3-ylamino)-acetylamino]-azetidin-1-yl}-cyclohexanecarboxylic acid ethyl ester], the IC50 worked out at 71 nM.

As to `CC(C)C1CCC(N2CC(NC(=O)CNc3noc4ccc(OC(F)(F)F)cc34)C2)CC1` (stereo not shown) [Example 17, N-[1-(4-Isopropyl-cyclohexyl)-azetidin-3-yl]-2-(5-trifluoromethoxy-benzo[d]isoxazol-3-ylamino)-acetamide], the IC50 came out at 750 nM. In the case of `COc1ccc(C2(O)CCC(N3CC(NC(=O)CNc4nn(C)c5ccc(C(F)(F)F)cc45)C3)CC2)cn1` (stereo not shown) [Example 18, N-{1-[4-Hydroxy-4-(6-methoxy-pyridin-3-yl)-cyclohexyl]-azetidin-3-yl}-2-(1-methyl-5-trifluoromethyl-1H-indazol-3-ylamino)-acetamide] it was 9.4 nM; in that of `Cn1nc(NCC(=O)NC2CN(C3CCC(O)(c4cccnc4)CC3)C2)c2cc(C(F)(F)F)ccc21` (stereo not shown) [Example 19, N-[1-(4-Hydroxy-4-pyridin-3-yl-cyclohexyl)-azetidin-3-yl]-2-(1-methyl-5-trifluoromethyl-1H-indazol-3-ylamino)-acetamide], 56 nM; in that of `CN(C)c1cccc(C2(O)CCC(N3CC(NC(=O)CNc4nn(C)c5ccc(C(F)(F)F)cc45)C3)CC2)c1` (stereo not shown) [Example 20, N-{1-[4-(3-Dimethylamino-phenyl)-4-hydroxy-cyclohexyl]-azetidin-3-yl}-2-(1-methyl-5-trifluoromethyl-1H-indazol-3-ylamino)-acetamide], 4.8 nM. For `Cn1nc(NCC(=O)NC2CN(C3CCC(O)(c4cncs4)CC3)C2)c2cc(C(F)(F)F)ccc21` (stereo not shown) [Example 21, N-[1-(4-Hydroxy-4-thiazol-5-yl-cyclohexyl)-azetidin-3-yl]-2-(1-methyl-5-trifluoromethyl-1H-indazol-3-ylamino)-acetamide], the IC50 was 28 nM. In the case of `Cn1nc(NCC(=O)NC2CN(C3CCC(O)(c4nccs4)CC3)C2)c2cc(C(F)(F)F)ccc21` (stereo not shown) [Example 22, N-[1-(4-Hydroxy-4-thiazol-2-yl-cyclohexyl)-azetidin-3-yl]-2-(1-methyl-5-trifluoromethyl-1H-indazol-3-ylamino)-acetamide], the IC50 turned out to be 13 nM. For the molecule `CCc1ncc(C2(O)CCC(N3CC(NC(=O)CNc4nn(C)c5ccc(C(F)(F)F)cc45)C3)CC2)s1` (stereo not shown) [Example 23, N-{1-[4-(2-Ethyl-thiazol-5-yl)-4-hydroxy-cyclohexyl]-azetidin-3-yl}-2-(1-methyl-5-trifluoromethyl-1H-indazol-3-ylamino)-acetamide], the IC50 was found to be 180 nM.

Consider `CC(C)c1ncc(C2(O)CCC(N3CC(NC(=O)CNc4nn(C)c5ccc(C(F)(F)F)cc45)C3)CC2)s1` (stereo not shown) [Example 24, N-{1-[4-Hydroxy-4-(2-isopropyl-thiazol-5-yl)-cyclohexyl]-azetidin-3-yl}-2-(1-methyl-5-trifluoromethyl-1H-indazol-3-ylamino)-acetamide], for which the IC50 is 5.3 nM.

In the case of `Cn1cc(C2(O)CCC(N3CC(NC(=O)CNc4nn(C)c5ccc(C(F)(F)F)cc45)C3)CC2)cn1` (stereo not shown) [Example 25, N-{1-[4-Hydroxy-4-(1-methyl-1H-pyrazol-4-yl)-cyclohexyl]-azetidin-3-yl}-2-(1-methyl-5-trifluoromethyl-1H-indazol-3-ylamino)-acetamide], the IC50 amounted to 200 nM.
